# Measured values reported in patent US7259174B2, “Imidazolidinone compounds” (National Health Research Institutes, priority 2004, dated 2007).
# What was measured:
# EV71-2231 = assay: plaque reduction assay, EV71-2231; format: cell-based, Enterovirus 71 (EV71); conditions: Enterovirus A, vero cells, plaques counted after 96 hours at 35° C.
# Description: (§1) Enterovirus 71 (EV71) isolates were obtained from Chang Gung Children's Hospitals (Taipei, Taiwan) and National Cheng Kung University Hospital (Tainan, Taiwan). EV71-2231 and EV71-1743 were isolated from throat swabs. EV71-2086 was isolated from the skin lesion of an implicated HFMD (hand, foot, and mouth disease) patient. EV71-4643 was a clinical isolate obtained from the throat swabs of a patient with encephalitis). BrCr, the prototype of EV71, was obtained from the American Type Culture Collection (ATCC Accession No. VR 784). Vero cells (ATCC Accession No. CCL-81) were used for virus isolation and propagation.
# (§2) The antiviral activity of a number of imidazolidinone compounds was determined by a standard plaque reduction assay as described in Otto et al., Antimicrobial Agents & Chemotherapy, 1985, 27:883-886.
# (§3) A compound to be tested was serially diluted and included in the agar-medium overlay. Plates were incubated at 35° C. for 96 hours. The plaques were stained with crystal violet and counted.
# EV71-4643 = assay: plaque reduction assay, EV71-4643; format: cell-based, Enterovirus 71 (EV71); conditions: Enterovirus A, vero cells, plaques counted after 96 hours at 35° C.
# Description: as §1, §2, §3
Structure (SMILES),IC50 (EV71-2231) [µM],IC50 (EV71-4643) [µM]
"CCO/N=C/c1ccc(OCCC(C)CCN2CCN(c3ccncc3)C2=O)cc1 (centres unmarked) [Compound 5, 4-[3-methyl-5-(2-oxo-3-pyridin-4-yl-imidazolidin-1-yl)-pentyloxy]-benzaldehyde O-ethyl-oxime]",≤ 0.0381,≤ 0.0381
"CCO/N=C/c1ccc(OCCC(C)(C)CCN2CCN(c3ccncc3)C2=O)cc1 [Compound 6, 4-[3,3-dimethyl-5-(2-oxo-3-pyridin-4-yl-imidazolidin-1-yl)-pentyloxy]-benzaldehyde O-ethyl-oxime]",≤ 0.0381,≤ 0.0381
"CCO/N=C/c1ccc(OCC[C@H](C)CCN2CCN(c3ccncc3)C2=O)cc1 [Compound 7, 4-[(R)-3-methyl-5-(2-oxo-3-pyridin-4-yl-imidazolidin-1-yl)-pentyloxy]-benzaldehyde O-ethyl-oxime]",≤ 0.0381,≤ 0.0381
"CCO/N=C/c1ccc(OCC[C@@H](C)CCN2CCN(c3ccncc3)C2=O)cc1 [Compound 8, 4-[(S)-3-methyl-5-(2-oxo-3-pyridin-4-yl-imidazolidin-1-yl)-pentyloxy]-benzaldehyde O-ethyl-oxime]",≤ 0.0381,≤ 0.0381
